Source: article PMC12147209 (2025)

What was measured:
[1] = system: 5′-AA-3′ (DNA, single strand, 5'-phosphate (discussed as a 5' phosphate group in the modelled structure)) AA; experiment: SERS adsorption isotherm, Hill-Langmuir fit; conditions: no added salt stated; immobilised compound, apparent; dinucleotide adsorption on spermine-capped gold-silver nanostars; 20 °C; spermine 6.7×10^-5 M; Hill n 1.5
[2] = system: 5′-AA-3′ (DNA, single strand, 5'-phosphate (discussed as a 5' phosphate group in the modelled structure)) AA; experiment: Raman spectroscopy of dried mixture (532 nm); conditions: no added salt stated; water, dried residue; spermine and dinucleotide at 2:1 molar excess, incubated overnight

Question: What does the source list for `NCCCNCCCCNCCCN`?
Answer: K d [1]: (6.2 ± 0.7) 10^–7 M; binding [2]: yes
